Data on 28 compounds can be found in ChEMBL document CHEMBL5506049, “Discovery of Novel Small-Molecule-Based Potential PD-L1/EGFR Dual Inhibitors with High Druggability for Glioblastoma Immunotherapy” (J Med Chem, 2024).

The subject of test [1] is U-251. The experiment in a line: cells. As to conditions: Homo sapiens, U-251, 72 h.
Description: Antiproliferative activity against human U-251 cells incubated for 72 hrs by MTT assay
Test [2] has as its system U-87 MG. Nature of the test: cells. As to conditions: Homo sapiens, 72 h.
Description: Antiproliferative activity against human U-87 MG cells incubated for 72 hrs by MTT assay
A short description of test [3]: cells. The conditions noted are these: GL261, 72 h.
Description: Antiproliferative activity against human GL261 cells incubated for 72 hrs by MTT assay
Test [4] is described as follows: cells. The conditions noted are these: Homo sapiens, U87MG Human EGFR vIII, 72 h.
Description: Antiproliferative activity against human U87vIII cells expressing EGFRvIII incubated for 72 hrs by MTT assay
Test [5] is described as follows: In vivo antitumor activity against […] GL261 cells xenografted in C57BL/6 mouse assessed as decrease in tumor volume at 100 mg/kg, IG treated for 21 days relative to control. The format is functional. Set-up: scale not given: the % may be the effect or the level left. The conditions noted are these: time 21 day.
Test [6] can be described thus: In vivo antitumor activity against […] GL261 cells xenografted in C57BL/6 mouse assessed as decrease in tumor weight at 100 mg/kg, IG treated for 21 days relative to control. The format is functional. Further details: scale not given: the % may be the effect or the level left. As to conditions: time 21 day. Background: In xenograft studies the graft and the host belong to different species.

Test [7] deals with Glioblastoma cell line. The experiment in a line: Antitumor immunity against glioblastoma bearing C57BL/6 mouse model assessed as tumor infiltrating lymphocytes by measuring increase in CD3+CD4+T cells at 100 mg/kg, IG (reference value: 0.91%). The format is functional.
In test [8] the test system is Glioblastoma cell line. Nature of the test: Antitumor immunity against glioblastoma bearing C57BL/6 mouse model assessed as tumor infiltrating lymphocytes by measuring increase in CD3+CD8+T cells at 100 mg/kg, IG (reference value: 3.44%). The format is functional.
In test [9] the target is Programmed cell death protein 1/Programmed cell death 1 ligand 1 (Homo sapiens, UniProt Q9NZQ7). The experiment in a line: Inhibition of PD-1/PD-L1 (unknown origin) interaction assessed as inhibition rate incubated for 1 hr by HTRF assay relative to control. The format is protein-complex assay. On the technique in general: TR-FRET usually uses a lanthanide donor and a delayed reading to cut background.
Sequence of Programmed cell death protein 1/Programmed cell death 1 ligand 1 (Q15116 whole entry): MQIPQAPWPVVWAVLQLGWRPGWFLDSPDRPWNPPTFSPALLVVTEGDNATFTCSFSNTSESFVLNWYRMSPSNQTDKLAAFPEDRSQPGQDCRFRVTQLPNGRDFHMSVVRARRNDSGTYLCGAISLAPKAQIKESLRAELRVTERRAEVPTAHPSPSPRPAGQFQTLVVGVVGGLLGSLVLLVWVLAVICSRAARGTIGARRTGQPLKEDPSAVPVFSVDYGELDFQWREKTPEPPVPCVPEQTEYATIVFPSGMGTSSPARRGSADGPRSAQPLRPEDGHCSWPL
Sequence of Programmed cell death protein 1/Programmed cell death 1 ligand 1 (Q9NZQ7 whole entry): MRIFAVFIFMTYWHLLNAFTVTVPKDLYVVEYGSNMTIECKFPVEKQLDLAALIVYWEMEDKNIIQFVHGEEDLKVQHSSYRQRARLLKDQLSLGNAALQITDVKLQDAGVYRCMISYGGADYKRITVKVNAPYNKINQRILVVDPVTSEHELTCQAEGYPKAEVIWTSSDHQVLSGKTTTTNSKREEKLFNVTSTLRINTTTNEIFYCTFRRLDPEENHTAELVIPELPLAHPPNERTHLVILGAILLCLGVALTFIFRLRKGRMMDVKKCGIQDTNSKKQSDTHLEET

The nature of test [10]: In vivo antitumor activity against […] GL261 cells xenografted in C57BL/6 mouse assessed as decrease in PD-L1 expression in tumor tissue at 100 mg/kg, IG treated for 21 days relative to control. The class given is functional. Further details: scale not given: the % may be the effect or the level left. The conditions noted are these: time 21 day.
Test [11] can be described thus: In vivo antitumor activity against […] GL261 cells xenografted in C57BL/6 mouse assessed as decrease in EGFR phosphorylation in tumor tissue at 100 mg/kg, IG treated for 21 days relative to control. The class given is functional. Further details: scale not given: the % may be the effect or the level left. As to conditions: time 21 day.

For the compound `COc1cc2ncnc(Nc3ccc(F)c(Cl)c3)c2cc1OCCCCCNCc1ccc(-c2cccc(-c3ccccc3)c2C)nc1OC`, the IC50 was found to be 1350 nM in test [1], 3.38 µM in test [2], 2.16 µM in test [3] and 530 nM in test [4].

`COc1cc2ncnc(Nc3ccc(F)c(Cl)c3)c2cc1OCCCCCCNC(=O)CCN(C)Cc1ccc(-c2cccc(-c3ccccc3)c2C)nc1OC`: the IC50 in [1] was > 20000 nM; in [2] it was > 20 µM; in test [3], > 20 µM; in [4], > 20000 nM.

Turning to `Cc1c(COc2cc(OCc3cccc(C#N)c3)c(CNC(C)(C)C(=O)O)cc2Cl)cccc1-c1ccccc1`, the Activity is 71.1% in test [5], 77.2% in test [6], 24.7% in [7] and 19.7% in test [8]. The IC50 was > 20000 nM in test [1]; > 20 µM in [2]; > 20 µM in test [3]; > 20000 nM in [4]; 56.2 nM in test [9].

As to `COc1cc2ncnc(Nc3ccc(F)c(Cl)c3)c2cc1OCCCCCCCCNC(=O)CN(C)Cc1c(OC)cc(OCc2cccc(-c3ccccc3)c2C)cc1OC`, the IC50 in [1] is > 20000 nM; in [2] it was > 20 µM; in test [3], > 20 µM; in test [4], > 20000 nM.

Take `COc1cc2ncnc(Nc3ccc(F)c(Cl)c3)c2cc1OCCCCNCc1c(OC)cc(OCc2cccc(-c3ccccc3)c2C)cc1OC`: the IC50 was found to be 1330 nM in test [1], 0.86 µM in test [2], 1.79 µM in [3] and 360 nM in test [4].

For `COc1cc2ncnc(Nc3ccc(F)c(Cl)c3)c2cc1OCCCCCCNCc1ccc(-c2cccc(-c3ccccc3)c2C)nc1OC`, the IC50 in [1] is 1870 nM; in test [2], 1.08 µM; in test [3], 3.25 µM; in test [4], 730 nM.

Regarding `COc1cc(OCc2cccc(-c3ccccc3)c2C)ccc1CNCCCCOc1cc2c(Nc3ccc(F)c(Cl)c3)ncnc2cc1OC`, the IC50 in test [1] was 1470 nM; in [2], 2.6 µM; in test [3] it was 1.97 µM; in test [4], 800 nM.

In the case of `COc1cc2ncnc(Nc3ccc(F)c(Cl)c3)c2cc1OCCCCNCc1ccc(-c2cccc(-c3ccccc3)c2C)nc1OC`, the IC50 in test [1] is 2850 nM; in test [2], 1.03 µM; in [3], 2.72 µM; in test [4] it was 2610 nM.

On to `COc1cc2ncnc(Nc3ccc(F)c(Cl)c3)c2cc1OCCCCCCNCc1c(OC)cc(OCc2cccc(-c3ccccc3)c2C)cc1OC`, for which the concentration for half-maximal inhibition (IC50) amounted to 1550 nM in test [1], 2.85 µM in test [2], 2.76 µM in test [3] and 540 nM in [4].

Take `COc1cc2ncnc(Nc3ccc(F)c(Cl)c3)c2cc1OCCCCCNC(=O)C1CCCCN1Cc1ccc(-c2cccc(-c3ccccc3)c2C)nc1OC` (configuration not stated): the IC50 is > 20000 nM in test [1], > 20 µM in test [2], > 20 µM in test [3] and > 20000 nM in [4].

In the case of `COc1cc2ncnc(Nc3ccc(F)c(Cl)c3)c2cc1OCCNCc1ccc(-c2cccc(-c3ccccc3)c2C)nc1OC`, the IC50 in test [1] turned out to be 2640 nM; in [2], 5.76 µM; in [3], 6.86 µM; in test [4] it was 1140 nM.

With `COc1cc2ncnc(Nc3ccc(F)c(Cl)c3)c2cc1OCCCCNCc1ccc(OCc2cccc(-c3ccccc3)c2C)c(C)c1`, the IC50 is 1380 nM in test [1], 0.89 µM in test [2], 2.25 µM in test [3] and 730 nM in test [4].

For the compound `COc1cc2ncnc(Nc3ccc(F)c(Cl)c3)c2cc1OCCCCCCCCNCc1ccc(-c2cccc(-c3ccccc3)c2C)nc1OC`, the IC50 in [1] stood at 3530 nM; in test [2], 1.15 µM; in test [3], 3.3 µM; in test [4], 2010 nM.

On to `COc1cc(OCc2cccc(-c3ccccc3)c2C)ccc1CNCCCOc1cc2c(Nc3ccc(F)c(Cl)c3)ncnc2cc1OC`, for which the IC50 in test [1] stood at 3490 nM; in test [2], 4.01 µM; in [3], 5.46 µM; in test [4] it was 960 nM.

Consider `COc1cc2ncnc(Nc3ccc(F)c(Cl)c3)c2cc1OCCCCNC(=O)C1CCCCN1Cc1ccc(-c2cccc(-c3ccccc3)c2C)nc1OC` (configuration not stated), for which the IC50 was > 20000 nM in [1], > 20 µM in test [2], > 20 µM in test [3] and > 20000 nM in test [4].

Take `COc1cc2ncnc(Nc3ccc(F)c(Cl)c3)c2cc1OCCCCCCNC(=O)C1CCCCN1Cc1c(OC)cc(OCc2cccc(-c3ccccc3)c2C)cc1OC` (configuration not stated): the IC50 in test [1] was > 20000 nM; in test [2], > 20 µM; in test [3], > 20 µM; in test [4], > 20000 nM.

Regarding `COc1cc2ncnc(Nc3ccc(F)c(Cl)c3)c2cc1OCCCNCc1c(OC)cc(OCc2cccc(-c3ccccc3)c2C)cc1OC`, the IC50 in test [1] stood at 1470 nM; in [2], 1.06 µM; in test [3], 2.39 µM; in [4] it was 1390 nM.

As to `COc1cc2ncnc(Nc3ccc(F)c(Cl)c3)c2cc1OCCCCCNCc1c(OC)cc(OCc2cccc(-c3ccccc3)c2C)cc1OC`, the IC50 was determined as 1040 nM in test [1], 1.35 µM in [2], 2.24 µM in test [3] and 440 nM in test [4].

Regarding `COc1nc(OCc2cccc(-c3ccccc3)c2C)ccc1CNCCNC(C)=O`, the IC50 in test [1] is 2980 nM; in [2] it was 3.72 µM; in test [3], 5.72 µM; in test [4], 8030 nM.

Take `COc1cc2ncnc(Nc3ccc(F)c(Cl)c3)c2cc1OCCNCc1c(OC)cc(OCc2cccc(-c3ccccc3)c2C)cc1OC`: the IC50 in test [1] came to 1960 nM; in test [2], 3.33 µM; in test [3], 3.22 µM; in test [4], 2840 nM.

`COc1cc2ncnc(Nc3ccc(F)c(Cl)c3)c2cc1OCCCCCNC(=O)C1CCCCN1Cc1c(OC)cc(OCc2cccc(-c3ccccc3)c2C)cc1OC` (configuration not stated): the IC50 in test [1] is > 20000 nM; in test [2], > 20 µM; in test [3], > 20 µM; in [4], > 20000 nM.

Turning to `COc1cc2ncnc(Nc3ccc(F)c(Cl)c3)c2cc1OCCCN1CCOCC1` [GEFITINIB], the Activity in test [5] is given as 71.2%; in test [6], 77.2%; in test [10], ~15%; in test [11] it was ~30%.

Regarding `COc1cc2ncnc(Nc3ccc(F)c(Cl)c3)c2cc1OCCCCCCNC(=O)C1CCCCN1Cc1ccc(OCc2cccc(-c3ccccc3)c2C)c(C)c1` (configuration not stated), the IC50 in [1] is > 20000 nM; in test [2] it was > 20 µM; in test [3] it was > 20 µM; in [4], > 20000 nM.

For the compound `COc1cc2ncnc(Nc3ccc(F)c(Cl)c3)c2cc1OC(=O)N1CCN(Cc2c(OC)cc(OCc3cccc(-c4ccccc4)c3C)cc2OC)CC1`, the IC50 was > 20000 nM in test [1], > 20 µM in [2], > 20 µM in [3] and > 20000 nM in [4].

On to `COc1cc2ncnc(Nc3ccc(F)c(Cl)c3)c2cc1OCCCCCNC(=O)CN(C)Cc1c(OC)cc(OCc2cccc(-c3ccccc3)c2C)cc1OC`, for which the IC50 in test [1] was > 20000 nM; in [2] it was 5.16 µM; in test [3] it was > 20 µM; in test [4], 3120 nM.

Take `COc1cc(OCc2cccc(-c3ccccc3)c2C)ccc1CNCCCCOc1cc2c(Nc3cccc(Cl)c3F)ncnc2cc1OC`: the IC50 in test [1] is 1290 nM; in [2], 0.84 µM; in test [3] it was 1.24 µM; in test [4], 290 nM.

On to `COc1cc2ncnc(Nc3ccc(F)c(Cl)c3)c2cc1OC(=O)N1CCN(Cc2ccc(-c3cccc(-c4ccccc4)c3C)nc2OC)CC1`, for which the IC50 in test [1] is > 20000 nM; in test [2], > 20 µM; in test [3], > 20 µM; in test [4], > 20000 nM.

`COc1cc2ncnc(Nc3ccc(F)c(Cl)c3)c2cc1OCCCNCc1ccc(-c2cccc(-c3ccccc3)c2C)nc1OC`: the IC50 was 5120 nM in [1], 1.08 µM in test [2], 2.63 µM in test [3] and 820 nM in [4].

Broadly, the IC50 is the midpoint of a concentration-inhibition curve.
